Common to all, as to type: cell-based
Test [1] addresses T1, human α1A-adrenergic receptor (Homo sapiens, UniProt P35348).
T1 sequence (P35348 1-466): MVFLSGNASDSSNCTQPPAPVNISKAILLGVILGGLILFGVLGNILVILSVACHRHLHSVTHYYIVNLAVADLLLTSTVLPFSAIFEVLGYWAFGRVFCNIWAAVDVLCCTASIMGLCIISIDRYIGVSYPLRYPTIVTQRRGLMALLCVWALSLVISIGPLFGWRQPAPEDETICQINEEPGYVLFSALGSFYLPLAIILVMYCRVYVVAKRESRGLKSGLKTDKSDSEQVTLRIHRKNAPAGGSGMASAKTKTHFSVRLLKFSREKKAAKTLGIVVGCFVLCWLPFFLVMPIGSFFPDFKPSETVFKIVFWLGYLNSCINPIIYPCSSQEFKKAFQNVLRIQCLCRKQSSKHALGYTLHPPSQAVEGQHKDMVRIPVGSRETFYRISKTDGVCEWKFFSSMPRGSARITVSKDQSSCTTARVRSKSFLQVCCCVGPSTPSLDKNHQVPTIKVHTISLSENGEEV
Nature of the test: Test Case 4-B: human α1A-adrenergic receptor agonist activity (Cerep cellular functional GPCR, alpha 1A). The arrangement: expressed in transfected cells. To be noted: concentration 10 μM; for α1 receptor % of Control Agonist Response, Control; Epinephrine: epinephrine = 100%. An excerpt: (§1) Measurement of Human α1A-Adrenergic Receptor Agonist Activity
The human α1A-adrenergic receptor agonist activity] can be measured by […] Functional GPCR·Gs, alpha 1A (Ref. 722-36a) listed on p. 52 of the Cerep 2008 CATALOG IN VITRO PHARMACOLOGY & ADME-TOX.

The target of test [2] is T1, human α1A-adrenergic receptor. Nature of the test: Test Case 4-A: human α1A-adrenergic receptor agonist activity (HEK293, Ca flux, Fura-2). The arrangement: expressed in transfected cells; host or cells: HEK293 cells, pcDNA3.1. On the procedure: as §1
The human α1A-adrenergic receptor agonist activity is measured using HEK293 cells transfected by a human α1A gene inserted in pcDNA3.1 (Invitrogen). […] After loading for 30 minutes in a CO2 incubator, the excess Fura-2AM is removed by washing twice with assay buffer. After preparing the centrifuged cells to make 5×10^6 cells/mL by assay buffer, 80 μL/well is dispensed into 96-well UV plates (made by Corning) to make cell plates. Sample plates with the test compound diluted 10-fold by assay buffer from 10^−5 to 10^−12 M and cell plates are set in an FDSS4000 (made by Hamamatsu Photonics). After preincubating for 180 seconds, measurement of fluorescence intensity (excitation wavelength 340 nm, 380 nm, measurement wavelength 500 nm) is begun at 2-second intervals. After approximately 30 seconds of measurement, 20 μL of test sample from a sample plate is added to the cell plate, and measurement is continued for another 270 seconds. The Ca flux caused by the test compound is calculated taking the difference in the maximum value of the fluorescence intensity ratio at 340 nm and 380 nm after adding the test compound and the fluorescence intensity ratio before adding the test compound as the peak height.

The target in test [3] is T2, human β3-adrenergic receptor (Homo sapiens, UniProt P13945).
T2 construct: A full-length human β3 gene is obtained from a human genomic library (made by Clontech) using this as the probe; expressed in transfected cells; host or cells: CHO (Chinese hamster ovary) cells, pcDNA3
T2 sequence (P13945 whole entry): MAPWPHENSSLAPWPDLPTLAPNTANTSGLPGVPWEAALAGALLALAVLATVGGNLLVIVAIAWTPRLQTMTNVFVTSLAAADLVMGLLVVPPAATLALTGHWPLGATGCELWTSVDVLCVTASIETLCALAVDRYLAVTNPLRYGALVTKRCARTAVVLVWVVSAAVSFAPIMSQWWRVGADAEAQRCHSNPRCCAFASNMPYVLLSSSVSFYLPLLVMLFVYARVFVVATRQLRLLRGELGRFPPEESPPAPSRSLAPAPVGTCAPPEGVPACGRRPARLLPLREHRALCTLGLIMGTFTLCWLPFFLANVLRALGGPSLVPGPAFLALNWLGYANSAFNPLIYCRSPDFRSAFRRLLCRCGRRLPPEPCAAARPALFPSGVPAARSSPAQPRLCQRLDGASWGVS
The test is described as follows: Test Case 1-B: human β3-adrenergic receptor agonist activity (cAMP-Screen, 96-well). On the procedure:
Measurement of Human β3-Adrenergic Receptor Agonist Activity
The human β3-adrenergic receptor agonist activity is measured using CHO (Chinese hamster ovary) cells transfected by a human β3 gene inserted in pcDNA3 (Invitrogen). […] A full-length human β3 gene is obtained from a human genomic library (made by Clontech) using this as the probe. These cells are cultured in Ham's F-12 medium containing 10% fetal calf serum and 400 μg/mL genectin (Invitrogen). These cells are sown in 96-well plates to make 2×10^4 cells/well. After culturing for approximately 20 hours, they are allowed to stand for 15 minutes in 80 μL of serum-free Ham's F-12 medium. After first dissolving the test compound by DMSO, it is serially diluted by Ham's F-12 containing 100 mmol/L HEPES and 1 mmol/L isobutylmethylxanthine, and 20 μL is added to the cells. After culturing for 30 minutes, the medium is removed, and 0.1 mL of the assay/lysis buffer contained in the cAMP-Screen kit (made by Applied Bioscience) is added and incubated for 30 minutes at 37° C. The cAMP in this cell lysate is assayed by the above cAMP-Screen kit.

In test [4] the target is T3, human β2-adrenergic receptor (Homo sapiens, UniProt P07550).
T3 construct: expressed in transfected cells; host or cells: CHO (Chinese hamster ovary) cells, pcDNA3
T3 sequence (P07550 whole entry): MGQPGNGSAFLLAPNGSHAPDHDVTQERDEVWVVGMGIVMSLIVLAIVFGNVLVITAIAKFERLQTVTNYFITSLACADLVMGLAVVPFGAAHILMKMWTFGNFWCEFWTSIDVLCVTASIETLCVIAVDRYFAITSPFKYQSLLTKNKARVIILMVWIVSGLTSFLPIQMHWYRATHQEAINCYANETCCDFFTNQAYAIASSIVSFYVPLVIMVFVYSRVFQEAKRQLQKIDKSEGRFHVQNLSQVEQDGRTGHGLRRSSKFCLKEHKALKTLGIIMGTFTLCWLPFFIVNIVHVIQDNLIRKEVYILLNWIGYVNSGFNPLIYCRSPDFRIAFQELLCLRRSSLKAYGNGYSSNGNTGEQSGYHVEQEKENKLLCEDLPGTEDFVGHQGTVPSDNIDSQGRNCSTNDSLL
The test is described as follows: Test Case 3-B: human β2-adrenergic receptor agonist activity. To be noted: read-out: β2 receptor I.A. On the procedure:
Measurement of Human β2-Adrenergic Receptor Agonist Activity
The human β2-adrenergic receptor agonist activity is measured by the same method as in Test Case 1-B using CHO (Chinese hamster ovary) cells transfected by a human β2 gene inserted in pcDNA3 (Invitrogen).

In test [5] the target is T4, human β1-adrenergic receptor (Homo sapiens, UniProt P08588).
T4 construct: expressed in transfected cells; host or cells: CHO (Chinese hamster ovary) cells, pcDNA3
T4 sequence (P08588 whole entry): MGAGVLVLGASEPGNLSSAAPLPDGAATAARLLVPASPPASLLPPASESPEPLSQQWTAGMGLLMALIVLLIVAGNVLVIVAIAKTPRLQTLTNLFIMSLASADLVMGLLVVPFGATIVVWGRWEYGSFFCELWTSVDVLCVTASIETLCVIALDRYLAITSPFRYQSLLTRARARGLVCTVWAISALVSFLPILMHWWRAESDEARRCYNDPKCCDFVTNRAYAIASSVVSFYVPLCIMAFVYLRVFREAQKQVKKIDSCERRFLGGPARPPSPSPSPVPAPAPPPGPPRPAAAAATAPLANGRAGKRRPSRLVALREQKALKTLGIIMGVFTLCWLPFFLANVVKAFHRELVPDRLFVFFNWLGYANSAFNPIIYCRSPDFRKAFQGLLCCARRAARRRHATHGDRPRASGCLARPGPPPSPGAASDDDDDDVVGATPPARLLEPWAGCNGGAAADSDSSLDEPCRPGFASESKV
Nature of the test: Test Case 2-B: human β1-adrenergic receptor agonist activity. To be noted: read-out: β1 receptor I.A. On the procedure: Measurement of Human β1-Adrenergic Receptor Agonist Activity
The human β1-adrenergic receptor agonist activity is measured by the same method as in Test Case 1-B using CHO (Chinese hamster ovary) cells transfected by a human β1 gene inserted in pcDNA3 (Invitrogen).

The mark [6] stands for this setting: HEK293; read-out: α1A receptor I.A.
The mark [7] stands for this setting: Test Case 4-A; maximum response of norepinephrine = 100%; Table 4.
The mark [8] stands for this setting: 0.5 h; read-out: β3 receptor I.A.
Where [9] appears, read: Test Case 4-A; HEK293 cells, Ca flux; Table 4.
The mark [10] stands for this setting: Test Case 1-B; maximum response of isoproterenol = 100%.

Read-outs that look alike come from different tables or passages of the source.

Turning to `CNC[C@H](O)c1ccc(O)c(O)c1` [Epinephrine, epinephrine, reference compound], the “α1 receptor % of Control Agonist Response, Control; Epinephrine” value in test [1] amounted to 100%.

As for `NC[C@H](O)c1ccc(O)c(O)c1` [Norepinephrine, reference compound], in test [1], the “α1 receptor % of Control Agonist Response, Control; Epinephrine” value turned out to be 116%. In test [1] (norepinephrine = 100%), the “α1 receptor % of Control Agonist Response, Control; Norepinephrine” value worked out at 100%. The Emax in test [2] (setting [6]) was 100%. In addition, in test [2] (setting [7]), the “α1A receptor I.A.” value is 100%.

One may read the EC50 as the concentration giving half of the maximal effect. Take `COc1n[nH]c2cc(OCCNC[C@H](O)c3cccc(NS(=O)(=O)c4cccc(N)c4)c3)ccc12` [ex1, (R)-3-amino-N-(3-(1-hydroxy-2-(2-(3-methoxyindazol-6-yloxy)ethylamino)ethyl)phenyl)benzenesulfonamide]: the Emax in test [3] (setting [8]) was determined as 110%; in test [4] it was 1%; in test [5], 6%; in test [2] (setting [6]), 0%. The compound also came in with an EC50 in test [3] (Test Case 1-B; CHO cells, cAMP) of 0.52 nM.

Regarding `COc1n[nH]c2cc(OCCNC[C@H](O)c3cccc(NS(=O)(=O)c4cccnc4)c3)ccc12` [ex12, (R)-N-(3-(1-hydroxy-2-(2-(3-methoxyindazol-6-yloxy)ethylamino)ethyl)phenyl)pyridine-3-sulfonamide], the Emax in test [3] (setting [8]) is 52%; in test [4], 5%; in test [5], 5%; in test [2] (setting [6]), 0%. The compound also displayed an EC50 in test [3] (Test Case 1-B; CHO cells, cAMP) of 31 nM.

In the case of `COc1n[nH]c2cc(OCCNC[C@H](O)c3cccc(NS(=O)(=O)c4cccc(Cl)c4)c3)ccc12` [ex13, (R)-3-chloro-N-(3-(1-hydroxy-2-(2-( ? - methoxyindazol-6-yloxy)ethylamino)ethyl)phenyl) benzenesulfonamide], the Emax in test [3] (setting [8]) is 82%; in test [4] it was -4%; in test [5], 4%; in test [2] (setting [6]), 0%. In addition, the EC50 in test [3] (Test Case 1-B; CHO cells, cAMP) is 9.4 nM.

On to `CCc1n[nH]c2cc(OCCNC[C@H](O)c3cccc(NS(=O)(=O)c4ccsc4)c3)ccc12` [ex123, (R)-N-(3-(2-(2-(3-ethylindazol-6-yloxy)ethylamino)-1-hydroxyethyl)phenyl) thiophene-3-sulfonamide], for which the Emax in test [3] (setting [8]) is 50%; in test [2] (setting [6]), 0%. A half-maximal response in test [3] (Test Case 1-B; CHO cells, cAMP) (EC50) required 0.67 nM.

As for `CCc1n[nH]c2cc(OCCNC[C@H](O)c3cccc(NS(=O)(=O)CC(F)(F)F)c3)ccc12` [ex125, (R)-N-(3-(2-(2-(3-ethylindazol-6-yloxy)ethylamino)-1-hydroxyethyl)phenyl)-2,2,2-trifluoro ? sulfonamide], the Emax in test [3] (setting [8]) amounted to 34%; in test [2] (setting [6]), 15%. The compound also showed an EC50 in test [3] (Test Case 1-B; CHO cells, cAMP) of 14 nM.

`CCc1n[nH]c2cc(OCCNC[C@H](O)c3cccc(NS(=O)(=O)C4CCC4)c3)ccc12` [ex150]: the Emax in test [3] (setting [8]) was determined as 85%; in test [2] (setting [6]) it was 61%. Further, the 50% effective concentration (EC50) in test [3] (Test Case 1-B; CHO cells, cAMP) was found to be 5.4 nM; in test [2] (setting [9]), 1280 nM.

`O=S(=O)(Nc1cccc([C@@H](O)CNCCOc2ccc3c(Cl)n[nH]c3c2)c1)C1CCC1` [ex179, (R)-N-(3-(2-(2-(3-chloroindazol-6-yloxy)ethylamino)-1-hydroxyethyl)phenyl)-cyclobutanesul-fonamide]: the Emax in test [3] (setting [8]) was 93%; in test [2] (setting [6]) it was 26%. The EC50 in test [3] (Test Case 1-B; CHO cells, cAMP) amounted to 17 nM; in test [2] (setting [9]) it was 436 nM.

For `O=S(=O)(Nc1cccc([C@@H](O)CNCCOc2ccc3c(C(F)(F)F)n[nH]c3c2)c1)c1ccccc1F` [ex189, (R)-2-fluoro-N-(3-(1-hydroxy-2-(2-(3-(trifluoromethyl)-indazol-6-yloxy)ethylamino)ethyl)phenyl)benzene-sulfonamide], the Emax in test [3] (setting [8]) was 91%; in test [2] (setting [6]), 1%. Further, the EC50 in test [3] (Test Case 1-B; CHO cells, cAMP) worked out at 85 nM.

Turning to `O=S(=O)(Nc1cccc([C@@H](O)CNCCOc2ccc3c(C(F)(F)F)n[nH]c3c2)c1)C1CCC1` [ex210, (R)-N-(3-(1-hydroxy-2-(2-(3-(trifluoro-methyl)-indazol-6-yloxy)ethylamino)ethyl)phenyl)cyclo-clobutanesulfonamide], the results for the Emax in test [3] (setting [8]) and in test [2] (setting [6]) were 86% and 54%, respectively. Moreover, the EC50 in test [3] (Test Case 1-B; CHO cells, cAMP) came to 17 nM; in test [2] (setting [9]), 1700 nM.

`Cn1cc(S(=O)(=O)Nc2cccc([C@@H](O)CNCCOc3ccc4c(C5CC5)n[nH]c4c3)c2)cn1` [ex225, (R)-N-(3-(2-(2-(3-cyclopropylindazol-6-yloxy)ethylamino)-1-hydroxyethyl)phenyl)-1-methyl-pyrazole-4-sul-fonamide]: the Emax in test [3] (setting [8]) was found to be 91%; in test [2] (setting [6]) it was 41%. For the same compound, the concentration giving a half-maximal response (EC50) in test [3] (Test Case 1-B; CHO cells, cAMP) was found to be 5.7 nM; in test [2] (setting [9]) it was 981 nM.

As to `O=S(=O)(Nc1cccc([C@@H](O)CNCCOc2ccc3c(C4CC4)n[nH]c3c2)c1)C1CC1` [ex227, (R)-N-(3-(2-(2-(3-cyclopropylindazol-6-yloxy)ethylamino)-1-hydroxyethyl)phenyl)-cyclopropane-sulfonamide], the EC50 in test [3] (Test Case 1-B; CHO cells, cAMP) is 31 nM. Also, the “β3 receptor I.A.” value in test [3] (setting [10]) is recorded as 65%. Also, the “α1A receptor I.A.” value in test [2] (setting [7]) is recorded as 1%.

Turning to `O=S(=O)(Nc1cccc([C@@H](O)CNCCOc2ccc3c(C4CCC4)n[nH]c3c2)c1)C1CCC1` [ex233, (R)-N-(3-(2-(2-(3- ?], the Emax in test [3] (setting [8]) amounted to 73%; in test [2] (setting [6]), 9%. Moreover, the EC50 in test [3] (Test Case 1-B; CHO cells, cAMP) is 10 nM.

On to `Cc1n[nH]c2cc(OCCNC[C@H](O)c3cccc(NS(=O)(=O)C4CCCC4)c3)ccc12` [ex237, (R)—N-(3-(1-hydroxy-2-(2-(3-methylindazol-6-yloxy)ethylamino)ethyl)phenyl)cyclopentanesulfonamide], for which the Emax in test [3] (0.5 h, read-out: β3 receptor I.A.) amounted to 58%; in test [2] (HEK293, read-out: α1A receptor I.A.), 0%. The midpoint of the response in test [3] (Test Case 1-B; CHO cells, cAMP), the EC50, lay at 293 nM.

For `O=S(=O)(Nc1cccc([C@@H](O)CNCCOc2ccc3c(CO)n[nH]c3c2)c1)C1CCC1` [ex243, (R)—N-(3-(1-hydroxy-2-(2-(3-(hydroxymethyl)indazole-6-yloxy)ethylamino)ethyl)phenyl)cyclobutanesulfonamide], the values for the Emax in test [3] (setting [8]) and in test [2] (setting [6]) were 72% and 89%, respectively. Also, the EC50 in test [3] (Test Case 1-B; CHO cells, cAMP) was 72 nM; in test [2] (setting [9]), 44 nM.

“(R)-N-(3-(1-hydroxy- 2-(2-(3-iso- propylindazol-6-yloxy) ethylamino)ethyl) phenyl)cyclopro- panesulfonamide [ex228]” returned an EC50 in test [3] (Test Case 1-B; CHO cells, cAMP) of 14 nM. In addition, the “β3 receptor I.A.” value in test [3] (setting [10]) is 47%. The “α1A receptor I.A.” value in test [2] (setting [7]) stood at 0%.

For the origin of these results see US20120225909A1, “INDAZOLE ANALOG” (priority 2009, published 2012).
